The values that follow come from patent US20230192765A1, “PEPTIDES TARGETING SHP2 AND USES THEREOF” (UNIVERSITÀ DEGLI STUDI DI ROMA "TOR VERGATA", priority 2020, published 2023).

Like-named read-outs stand apart in the source and are kept apart here. Primed or numbered codes have the meaning given here. [ ]: non-standard residue; d: D form. 5,6‑carboxyfluorescein″ = CF is 5,6 carboxyfluorescein; pY = N[C@@H](Cc1ccc(OP(=O)(O)O)cc1)C(=O)O

What is called Kd is the free concentration of one partner at which half of the binding sites on the other are occupied at equilibrium, for simple one-to-one binding. A high value points to lower affinity.

The test system of data set [1] is zebrafish embryos injected with Shp2a-D61G mRNA. Briefly: In vivo zebrafish rescue experiments, Shp2a-D61G embryos. The protocol:
(§1) One cell stage zebrafish embryos were injected with a mixture of 120 ng/µl of mRNA encoding either GFP-2A-Shp2-D61G or GFP-2A-Shp2-wt (as a control), with or without OP, at 0.3 µM, 3 µM and 5 µM concentration. Embryos were selected based on proper GFP expression and imaged at 11 hours post fertilization (hpf) in their lateral position using the Leica M165 FC stereomicroscope. Images were analyzed using ImageJ [Schneider 2012], by measuring the ratio of the major and minor axis from a minimum of 31 embryos. Statistical analysis was performed in GraphPad Prism, using the analysis of variance (ANOVA) complemented by Tukey’s honest significant difference test (Tukey’s HSD). To measure the survival of injected embryos, a minimum of 48 embryos per group were grown up to 4 days post fertilization (dpf) and counted at 1 dpf and 4 dpf. Survival curves were plotted using GraphPad Prism, and the differences between samples were determined using the Log-rank (Mantel-Cox) test.

A short description of data set [2]: Peptide stability in DMEM. It counts as in vitro ADME. Conditions: three days. The protocol: (§2) The peptides were dissolved in DMSO (C=5 mg/mL). In eppendorf tubes, 1 mL of HEPES buffer (C = 25 mM, pH = 7.6) was temperature equilibrated at 37° C. before adding 250 µL of human serum and 20 µL of peptide solution; the reaction was followed for 90 minutes. At fixed intervals, 100 µL of the solution were withdrawn and added to 200 µL of absolute ethanol. These samples were kept on ice for 15 minutes, then centrifuged at 13,000 rpm for 5 minutes; the supernatant solutions were analyzed by HPLC and HPLC-MS with 20-60% B gradient in 20 minutes to follow the reaction. In parallel, samples containing peptide, buffer and ethanol only were also analyzed, too. A degradation resistance test was also conducted in DMEM (Dulbecco’s Modified Eagle Medium). The experimental conditions are similar to those described above; the reaction was followed for 72 hours. The enzymatic degradation resistance tests were followed by HPLC using a 5-50% B gradient in 20 minutes.

The format of data set [3] is in vitro ADME. Conditions: human serum, up to 90 minutes, 37° C. The protocol:
as §2

Data set [4] has as its system zebrafish embryos injected with Shp2a-WT mRNA. Briefly: In vivo zebrafish experiments, Shp2a-WT embryos. The protocol: as §1
The target of a further data set is T1, N-SH2 domain of SHP2 (Homo sapiens, UniProt Q06124).
T1 construct: constructs of the N-SH2 (residues 2-111), C-SH2 (109-217) and PTP (212-528) domains; His6 (esaHis); made in house; host or cells: E. coli (DE3) Rosetta2
T1 sequence (Q06124 2-111): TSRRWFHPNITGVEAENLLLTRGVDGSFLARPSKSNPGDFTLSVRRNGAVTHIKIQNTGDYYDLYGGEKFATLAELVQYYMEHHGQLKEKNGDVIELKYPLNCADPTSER
Briefly: Fluorescence anisotropy direct binding assay, N-SH2 domain. The settings on record: N-SH2 domain; direct binding. In general terms: Polarisation of emitted light reports the rotation of a fluorescent probe.

In data set [5] the test system is protein array of 97 human SH2 domains. Kind of data set: SH2 domain microarray. It counts as binding. The settings on record: peptide 0.5, 5.0, 50 nM. The protocol:
(§3) The microarray experiment was conducted by the Protein Array and Analysis Core at the MD Anderson Cancer Center (University of Texas, USA), as previously described [Roth 2019]. Briefly, a library of SH2 domains [Huang 2008] was expressed as GST fusion in E. coli and purified on glutathione-sepharose beads. The domains were spotted onto nitrocellulose-coated glass slides (Oncyte Avid slides, Grace Bio-Labs) using a pin arrayer [Espejo 2002]. Each domain was spotted in duplicate.

Another data set concerns the target T2, N-SH2 domain of SHP1 (Homo sapiens, UniProt P29350).
T2 construct: host or cells: E. coli
T2 sequence (P29350 4-100 limits assumed): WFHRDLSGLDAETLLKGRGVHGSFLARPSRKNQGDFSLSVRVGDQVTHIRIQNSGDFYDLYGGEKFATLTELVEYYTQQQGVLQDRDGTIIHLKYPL
Briefly: SH2 domain microarray, SHP1. It counts as binding. The settings on record: peptide 0.5, 5.0, 50 nM. The protocol:
as §3

The subject of data set [6] is pathogenic variants of SHP2. Conditions: literature [Sun 2018; LaRochelle 2018]; cited from earlier work.
Data set [7] has as its system NIH3T3 cells. Briefly: Cell uptake experiments (FACS). It counts as cell-based. The settings on record: TAT linked to the C-terminus. The protocol:
Cell uptake experiments were performed on NIH3T3 cells. About 200,000 cells were seeded on six-well plates and cultured in Dulbecco’s modified Eagle’s medium supplemented with 10% heat-inactivated fetal bovine serum (Gibco) and 1 % penicillin-streptomycin, at 37° C. with 5% CO2.
Two different strategies were followed. In a first set of experiments, the fluorescent peptide has been incubated with the cell-penetrating peptide (CPP) Pep-1. A Pep-1 stock solution was prepared by dissolving the peptide in ultrapure water. The fluorescent peptide was diluted in PBS from the DMSO stock solution. The peptides were mixed and incubated for 30 minutes at room temperature in a final volume of 400 µl. The conditions for cell delivery were optimized by investigating different cargo to CPP ratios. The mixture was then added to the cells, washed with PBS, together with 600 µl of serum-free medium (volumes for one well are reported). After one hour, 10% of fetal bovine serum (FBS) was added.
(§4) Cells were incubated for different times and then washed, collected and stained with SYTOX blue (1 mM, Invitrogen™) to identify the viable population and the green fluorescence of CFP9W5 was recordered to measure peptide uptake. Data were analysed with Kaluza Analysis Software (Beckman Coulter).
A second set of measurement was carried out using the TAT-conjugated peptide analog. […]

Data set [8] relates to NIH3T3 cells. Briefly: Peptide toxicity in the cell uptake experiments (Sytox). The settings on record: all the concentrations tested. It counts as cell-based. The protocol:
Cell viability in the FACS experiment was determined by using Sytox fluorescence.
as §4

Protocol for N-SH2 domain of SHP2: Anisotropy measurements were carried out using a Horiba Fluoromax 4 spectrofluorimeter.
For the binding assays, the requested peptide amount (1 nM or 0.1 nM) was diluted in buffer (HEPES 10 mM, NaCl 150 mM, EDTA 1 mM, TCEP 1 mM, fluorescence buffer henceforth) and its anisotropy signal was recorded. The peptide was then titrated with increasing protein amounts, until the anisotropy signal reached a plateau at its maximum value, or up to a protein concentration where protein aggregation and consequent light scattering affected the anisotropy values (usually above 1 µM). The measurements of CF-labeled peptides were carried out using an excitation wavelength of 470 nm and collecting the anisotropy values at an emission wavelength of 520 nm. A 495 nm emission filter was used. For the Cy3-labeled peptides, excitation and emission wavelengths of 520 and 560 nm were used.
The Kd values were obtained fitting the data with the following equation, described in Van der Weert 2011, which avoids the need for the commonly used (but often unjustified) approximation of the concentration of unbound protein with the total concentration:
Here, [P]T and [L]T are the total protein and ligand concentrations, while r, ro and rmax are the anisotropy values at a given protein concentration, in the absence of protein and when the peptide is completely bound, respectively.

As for `CC[C@H](C)[C@H](NC(=O)[C@H](Cc1ccc(C(F)(F)P(=O)(O)O)cc1)NC(=O)[C@H](CC(N)=O)NC(=O)[C@H](CC(C)C)NC(=O)CNC(C)=O)C(=O)N[C@@H](CC(=O)O)C(=O)N[C@@H](CC(C)C)C(=O)N[C@@H](CC(=O)O)C(=O)N[C@@H](Cc1c[nH]c2ccccc12)C(N)=O` [Peptide P9ND0W5, GLN-F2Pmp-IDLDW], the “rescue of the gastrulation phenotype” value in data set [1] (5 µM peptide) is listed as “significant”. Moreover, the survival of embryos entry in data set [1] (co-injection 0.3 µM, 3 µM and 5 µM, counted 1 dpf and 4 dpf) is “significant and dose dependent improvement”. Besides, the “degradation (HPLC)” value in data set [2] and in data set [3] was “No significant degradation” in each case. In data set [4] (co-injection of 3 µM), the lethality of embryos entry is “not affected”. In [4] (co-injection with 3 µM peptide), the “embryo shape at 11 hpf” value is on record as “no impact on their shape”.

With Cy3-GLN-pY-IDLDW [Cy3-P9W5], the dissociation constant Kd on N-SH2 domain of SHP2 was determined as 23 ± 2 nM. Also, the “binding on SH2 domain array” value in data set [5] is given as “significant binding was observed only with the N-SH2 domain of SHP2”. For the same molecule, on N-SH2 domain of SHP1, the “binding to N-SH2 domain of SHP1” value was “negligible”.

Regarding `CC1(N)CCN(c2cnc(-c3cccc(Cl)c3Cl)c(N)n2)CC1` [SHP099], the “activity in pathogenic variants of SHP2” value in data set [6] is recorded as “significantly impaired activity”.

As for “CF-GLN-pY-IDLDW-GRKKRRQRRR ({5,6‑carboxyfluorescein″}-GLN[pY]IDLDWGRKKRRQRRR-NH2) [CF-P9W5-TAT]”, the “cell uptake, covalent strategy” value in the data set on NIH3T3 cells [7] is listed as “efficiently obtained”. Moreover, the cell killing result with NIH3T3 cells [8] is recorded as “did not cause any cell killing”.
